Counter-ions that a name gives are not always drawn.
Biological target: human TAAR1 receptor (Homo sapiens (Human), UniProt Q96RJ0)
Experiment: Evaluation of agonist activity on human TAAR1 receptor (cAMP assay)
Type: cell-based
Settings: cAMP in human TAAR1-expressing CHO cells, relative to 100 μM tyramine; for activation at 0.1 µM / activation at 1 µM / activation at 10 µM: CHO, 0.5 h, read-out: TAAR1 agonist activity at each concentration (%)
Experimental: TAAR1 is a G protein-coupled receptor that binds to G proteins (Gas), and activation of the TAAR1 receptor by agonists induces an increase in intracellular cAMP levels. Therefore, the agonist activity of the sample on the human TAAR1 receptor was evaluated using the cAMP assay method.
cAMP Hunter™ CHO-K1 TAAR1 Gs Cell Line, a cell expressing human TAAR1 receptor, was purchased. Human TAAR1-expressing CHO cells were seeded in a 96-well plate, and after culturing for 24 hours, a sample dissolved in DMSO was added and incubated at 37° C. for 30 minutes. A sample for cAMP measurement was prepared according to the cAMPHiRange kit protocol. The amount of cAMP produced by the sample was measured by time-resolved fluorescence using EnVision (excitation wavelength: 330 nm, fluorescence wavelength […]/665 nm).
Sample %=100×{(Csamp)−(Cblank)}/{(Ctyramine)−(Cblank)} • Csamp: count of sample, Ctyramine: count of 100 μM tyramine, Cblank: count of blank

Chain of human TAAR1 receptor (Q96RJ0 whole entry): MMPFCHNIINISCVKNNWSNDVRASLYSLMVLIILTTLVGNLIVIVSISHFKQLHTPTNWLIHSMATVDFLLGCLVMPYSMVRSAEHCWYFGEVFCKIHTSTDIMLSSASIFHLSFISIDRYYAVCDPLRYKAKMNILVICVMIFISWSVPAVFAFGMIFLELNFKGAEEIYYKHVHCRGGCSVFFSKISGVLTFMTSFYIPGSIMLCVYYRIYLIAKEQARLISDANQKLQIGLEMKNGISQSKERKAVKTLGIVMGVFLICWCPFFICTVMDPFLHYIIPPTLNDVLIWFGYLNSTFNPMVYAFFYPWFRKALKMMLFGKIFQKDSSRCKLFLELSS

Structure (SMILES) | activation at 0.1 µM (100 nM) | activation at 1 µM (1000 nM) | activation at 10 µM (10000 nM) | TAAR1 agonist activity at each concentration (%) (100 nM) | TAAR1 agonist activity at each concentration (%) (1000 nM) | TAAR1 agonist activity at each concentration (%) (10000 nM)
C[C@H]1COc2cccnc2[C@@H]1CN (racemic) [Example 1, rac-1-[(3R,4S)-3-methyl-3,4-dihydro-2H-pyrano[3,2-b]pyridin-4-yl]methanamine dihydrochloride] | 2% | 18% | 54% | – | – | –
CNC[C@@H]1C[C@@H](C)Oc2cccnc21 (racemic) [Example 7] | 17% | 56% | 75% | – | – | –
C[C@H]1C[C@@H](CN)c2ncccc2S1 (racemic) [Example 13] | 4% | 31% | 63% | – | – | –
CC(C)[C@H]1Oc2cccnc2[C@@H]1CN (racemic) [Example 21] | 0% | 23% | 81% | – | – | –
NC[C@H]1c2ncccc2O[C@@H]1CO (racemic) [Example 26] | 0% | 25% | 73% | – | – | –
COC[C@H]1Oc2cccnc2[C@@H]1CN (racemic) [Example 32] | 1% | 4% | 22% | – | – | –
NC[C@H]1c2ncccc2O[C@H]2CCCC[C@@H]21 (racemic) [Example 33, rac-1-[(5aS,9aR,10S)-6,7,8,9,9a,10-hexahydro-5aH-[1]benzpyrano[3,2-b]pyridine-10-yl]methanamine dihydrochloride] | 4% | 22% | 52% | – | – | –
C[C@H]1Oc2cccnc2[C@H]1CN (racemic) [Example 36, rac-1-[(2R,3R)-2-methyl-2,3-dihydrofuro[3,2-b]pyridin-3-yl]methanamine dihydrochloride] | 0% | 20% | 67% | – | – | –
CC[C@@H]1C[C@H](CN)c2ncccc2O1 (racemic) [Example 60] | 7% | 40% | 82% | – | – | –
CC[C@@H]1C[C@@H](CN)c2ncccc2O1 (racemic) [Example 61] | 2% | 22% | 66% | – | – | –
C[C@@H]1[C@H](CN)c2ncccc2O[C@@H]1C (racemic) [Example 62, rac-1-[(2R,3R,4R)-2,3-dimethyl-3,4-dihydro-2H-pyrano[3,2-b]pyridin-4-yl]methanamine dihydrochloride] | 2% | 20% | 66% | – | – | –
C[C@H]1[C@H](CN)c2ncccc2O[C@@H]1C (racemic) [Example 63] | 3% | 22% | 62% | – | – | –
C[C@H]1[C@H](C)Oc2cccnc2[C@H]1CN (racemic) [Example 64] | 0% | 7% | 40% | – | – | –
C[C@@H]1[C@H](C)Oc2cccnc2[C@H]1CN (racemic) [Example 65] | 0% | 28% | 67% | – | – | –
C[C@H]1Oc2cc(Cl)cnc2[C@@H]1CN (racemic) [Example 85] | – | – | – | 6% | 37% | 70%
CC[C@H]1COc2cccnc2[C@@H]1CN (racemic) [Example 86] | 1% | 8% | 40% | – | – | –
CC[C@@H]1COc2cccnc2[C@@H]1CN (racemic) [Example 87] | 4% | 25% | 63% | – | – | –
NC[C@H]1CCSc2cccnc21 (single isomer, unassigned) [Example 39, dihydrochloride] | 1% | 12% | 48% | – | – | –
C[C@H]1COc2cccnc2[C@H]1CN (stereo in doubt) [Example 3, rel-1-[(3R,4R)-3-methyl-3,4-dihydro-2H-pyrano[3,2-b]pyridin-4-yl]methanamine dihydrochloride] | 0% | 1% | 9% | – | – | –
C[C@@H]1COc2cccnc2[C@@H]1CN (stereo in doubt) [Example 4, rel-1-[(3S,4S)-3-methyl-3,4-dihydro-2H-pyrano[3,2-b]pyridin-4-yl]methanamine dihydrochloride] | 17% | 55% | 67% | – | – | –

Other lines, results leading:

activation at 0.1 µM (100 nM) | activation at 1 µM (1000 nM) | activation at 10 µM (10000 nM) | TAAR1 agonist activity at each concentration (%) (100 nM) | TAAR1 agonist activity at each concentration (%) (1000 nM) | TAAR1 agonist activity at each concentration (%) (10000 nM) | Structure (SMILES)
0% | 23% | 48% | – | – | – | Cc1ccc(-c2ccnc3c2CCCC3CN)cc1 (racemic) [Example 89, rac-1-[4-(4-methylphenyl)-5,6,7,8-tetrahydroquinolin-8-yl]methanamine dihydrochloride]
0% | 14% | 49% | – | – | – | NCC1CCc2c(OC3CCC3)ccnc21 (racemic) [Example 91, rac-1-[4-(cyclobutyloxy)-6,7-dihydro-5H-cyclopenta[b]pyridin-7-yl]methanamine dihydrochloride]
0% | 0% | 0% | – | – | – | Cc1ccnc2c1CCCC2CN (racemic) [Example 92, rac-1-(4-methyl-5,6,7,8-tetrahydroquinolin-8-yl)methanamine]
38% | 70% | 78% | – | – | – | CC1(C)Oc2ccc(F)nc2C1CN (racemic) [Example 106, rac-1-(5-fluoro-2,2-dimethyl-2,3-dihydrofuro[3,2-b]pyridin-3-yl)methanamine dihydrobromide]
59% | 90% | 96% | – | – | – | [2H][C@]1(C)Oc2cccnc2[C@H]1CN (relative stereo) [Example 95, rel-1-[(2R,3S)-2-methyl(2-^2H)-2,3-dihydrofuro[3,2-b]pyridin-3-yl]methanamine dihydrochloride]
3% | 28% | 66% | – | – | – | NC[C@@H]1c2ncccc2OC12CC2 (single isomer, unassigned) [Example 96, rel-1-[(3′R)-3′H-spiro[cyclopropane-1,2′-furo[3,2-b]pyridine]-3′-yl]methanamine dihydrochloride]
1% | 9% | 37% | – | – | – | NC[C@@H]1c2ncc(Cl)cc2OC12CC2 (single isomer, unassigned) [Example 98, rel-1-[(3′R)-6′-chloro-3′H-spiro[cyclopropane-1,2′-furo[3,2-b]pyridine]-3′-yl]methanamine dihydrochloride]
9% | 39% | 62% | – | – | – | NC[C@H]1c2ncc(Cl)cc2OC12CC2 (single isomer, unassigned) [Example 99, rel-1-[(3'S)-6′-chloro-3′H-spiro[cyclopropane-1,2′-furo[3,2-b]pyridine]-3′-yl]methanamine dihydrochloride]
0% | 17% | 50% | – | – | – | Cc1ccc2c(n1)[C@@H](CN)C1(CC1)O2 (single isomer, unassigned) [Example 100, rel-1-[(3′R)-5′-methyl-3′H-spiro[cyclopropane-1,2′-furo[3,2-b]pyridine]-3′-yl]methanamine dihydrochloride]
62% | 79% | 84% | – | – | – | Cc1ccc2c(n1)[C@H](CN)C1(CC1)O2 (single isomer, unassigned) [Example 101, rel-1-[(3'S)-5′-methyl-3′H-spiro[cyclopropane-1,2′-furo[3,2-b]pyridine]-3′-yl]methanamine dihydrochloride]
1% | 18% | 59% | – | – | – | NC[C@@H]1c2nc(F)ccc2OC12CC2 (single isomer, unassigned) [Example 102, rel-1-[(3′R)-5′-fluoro-3′H-spiro[cyclopropane-1,2′-furo[3,2-b]pyridine]-3′-yl]methanamine dihydrobromide]
60% | 84% | 89% | – | – | – | NC[C@H]1c2nc(F)ccc2OC12CC2 (single isomer, unassigned) [Example 103, rel-1-[(3'S)-5′-fluoro-3′H-spiro[cyclopropane-1,2′-furo[3,2-b]pyridine]-3′-yl]methanamine dihydrobromide]
0% | 5% | 31% | – | – | – | Cc1ccc2c(n1)[C@@H](CN)C(C)(C)O2 (single isomer, unassigned) [Example 104, dihydrochloride]
64% | 77% | 79% | – | – | – | Cc1ccc2c(n1)[C@H](CN)C(C)(C)O2 (single isomer, unassigned) [Example 105, dihydrochloride]

— US20240150370A1, “BICYCLIC PYRIDINE DERIVATIVE” (Sumitomo Pharma Co., Ltd., priority 0001, published 2024)
